Experiments:
Assay type in all cases: cell-based, Human
Conditions in all cases: concentration 10-M [sic], 2 days after addition
[1] = test system: Breast Cancer cells (HS 578T); experiment: NCI-60 one-dose screen, Breast Cancer cells (HS 578T)
Protocol: (§1) Anticancer activities of the exemplary isatin derivatives were tested by the NIH National Cancer Institutes (NCI), with results summarized in FIGS. 2A-2B. The anticancer activity was tested by NCI, division of cancer treatment and diagnosis, according to the NCI-60 Human Tumor Cell Lines Screen, one-dose screen (https://dtp.cancer.gov/discovery_development/nci-60/methodology.htm). This screening allows for qualified synthesized chemicals to be subjected to an anticancer test against 60 different cancer cell lines. Briefly, exemplary T1 or T2 was dissolved in DMSO:Glycerol, 9:1, at 4 mmol and kept frozen prior to use. For inoculation, a 96 well microtiter was used for the study of different cell lines. Based on the doubling time for each cell line, the well density varied. The plates were incubated at 37° C., 5% CO2, 95% air and 100% relative humidity for 1 day. The exemplary T1 or T2 or a control were added to the plates at a concentration of 10-M. After 2 more days, the plates were fixed and stained to identify growth inhibition relative to cells without drug treatment. Anti-proliferative activity was determined based on careful analysis of historical DTP screening data. Cell death and net growth inhibition were determined based on a time zero control. A value of 100 indicates no growth inhibition. A value of 40 indicates 60% growth inhibition. […]

[2] = test system: Ovarian Cancer cells (IGROV1); experiment: NCI-60 one-dose screen, Ovarian Cancer cells (IGROV1)
Protocol: as §1

[3] = test system: Non-Small Cell Lung Cancer cells (EKVX); experiment: NCI-60 one-dose screen, Non-Small Cell Lung Cancer cells (EKVX)
Protocol: as §1

[4] = test system: Colon Cancer cells (KM12); experiment: NCI-60 one-dose screen, Colon Cancer cells (KM12)
Protocol: as §1

[5] = test system: Renal Cancer cells (UO-31); experiment: NCI-60 one-dose screen, Renal Cancer cells (UO-31)
Protocol: as §1

[6] = test system: Renal Cancer cells (CAKI-1); experiment: NCI-60 one-dose screen, Renal Cancer cells (CAKI-1)
Protocol: as §1

Compound | reduction compared to control (anticancer activity) [1] [%] | reduction compared to control (anticancer activity) [2] [%] | reduction compared to control (anticancer activity) [3] [%] | reduction compared to control (anticancer activity) [4] [%] | reduction compared to control (anticancer activity) [5] [%] | reduction compared to control (anticancer activity) [6] [%]
O=C1Nc2ccccc2C1=NN=Cc1c[nH]c2ccccc12 [T1] | ~85 | ~65 | ~79 | ~72 | ~74 | ~83
O=C1Nc2ccc(Cl)cc2C1=NN=Cc1c[nH]c2ccccc12 [T2] | ~78 | – | ~77 | – | ~59 | ~71
